The values that follow come from patent US20060089329A1, “Ready-to-use gemcitabine solution concentrates” (priority 2004, published 2006).

Data set [1] is described as follows: Maximum solubility of gemcitabine hydrochloride at 66 vol. % ethyl alcohol after dissolving at 35-45° C. (Example 4). In kind it is physicochemical. To be noted: dissolved at 35-45° C. for 6 hours, cooled, stored 24 hours at 19-23° C. Here is the method:
The maximum solubility of gemcitabine hydrochloride was determined with further use of 1N sodium hydroxide, water for injection and absolute ethyl alcohol in a proportion of 66 percent by volume recognized as optimum for that purpose, at increased solution temperatures (35-45° C. for 6 hours under agitation) and subsequent cooling to room temperature (19-23° C.), and then stored for 24 hours at 19-23° C.

Data set [2] in a line: Saturation concentration of gemcitabine in aqueous ethyl alcohol solutions (Example 3). In kind it is physicochemical. To be noted: interpolation (polynomial of the 6th degree), about 66 percent by volume of ethyl alcohol, pH 10±0.5. The method, then:
In order to determine the saturation concentration of gemcitabine in aqueous ethyl alcohol solutions, gemcitabine solutions with various volume percentages of ethyl alcohol were prepared and analyzed.
Gemcitabine hydrochloride was placed beforehand in the mixing vessel, reacted with a stoichiometric amount of alkalizer (1N sodium hydroxide) dissolved in water, then treated each time with 80% of the required amounts of water for injection as determined in preliminary tests as well as with the amounts of ethyl alcohol required each time.
The components contained in the batch were subsequently dissolved at room temperature (19-23° C.) while agitating for 6 hours such that an undissolved sediment of gemcitabine hydrochloride remained in the mixing vessel. The pH of the batch was determined potentiometrically and, when required, adjusted to a pH of 10 with 1N sodium hydroxide or 1N hydrochloric acid, so as to achieve at this pH a complete conversion of the gemcitabine hydrochloride to the dissolved gemcitabine base.
The batch was stored for 24 hours at 19-23° C. […] These batches were then filtered until free of particles, and the gemcitabine content was determined by HPLC.

For data set [3] the following is noted: cited from earlier work.

Values after ≈ are worked out from the molar mass of the structure shown. Where a name gives a salt, the structure may show the parent alone. Read-outs that look alike come from different tables or passages of the source.

With `Nc1ccn([C@@H]2O[C@H](CO)[C@@H](O)C2(F)F)c(=O)n1` [gemcitabine hydrochloride], in data set [1] (hydrochloride), the “content in particle-free supernatant (maximum solubility)” value came to 108.3 mg/mL. The maximum gemcitabine solubility in data set [2] (hydrochloride) came to 55 mg/mL.
As a reminder, the solubility is the concentration that dissolves in the medium under given conditions. As for `Nc1ccn([C@@H]2O[C@H](CO)[C@@H](O)C2(F)F)c(=O)n1` [gemcitabine, 2′-deoxy-2′,2′-difluorocytidine], the solubility in water was 16.0 mg/mL (≈ 60.8 mM) in data set [3] (pH of 5), 15.3 mg/mL (≈ 58.1 mM) in data set [3] (pH of 7), 15.8 mg/mL (≈ 60 mM) in data set [3] (pH of 9) and “about 38 mg/ml” in data set [3] (pH range of 2.7 to 3.3). The solubility at 6 h in data set [1] (aqueous ethyl alcohol solution, aqueous with cosolvent or surfactant or cyclodextrin, thermodynamic from solid, read-out: content in particle-free supernatant (maximum solubility)) was 95.1 mg/mL (≈ 361 mM); in data set [2] (aqueous ethyl alcohol solution, 21 °C, pH 10, aqueous with cosolvent or surfactant or cyclodextrin, thermodynamic from solid, read-out: maximum gemcitabine solubility), 50 mg/mL (≈ 190 mM).
